Assay results published in patent US6355474B1, “Immunostimulatory and metastasis inhibiting fermented vegetal material” (priority 1997, dated 2002).

Key:
[1] = Stability (storage) tests via 2.6-DMBQ / 2-MBQ concentration by HPLC; assay type: physicochemical
Procedure: The decomposition of the material according to the invention was checked via the chanqes in concentration of the 2.6-dimethoxy-p-benzoquinone. We conducted storage experiments at three different temperatures (room temperature 20° C. 40° C. and 60° C.) The lyophilisate—about 1 g—as stored in test-tubes which were sealed air-tight. The duration of the experiments was 8 weeks, every week three parallel measurements were conducted on samples taken from all three series kept at different temperatures. The quantitative analysis of benzoquinone derivatives was conducted by HPLC.

[2] = literature; cited from earlier work
malignant tumour cells = details: literature; cited from earlier work

SMILES | decomposition of 2-methoxy-p-benzoquinone in the stored material ([1]; room temperature) | decomposition of 2-methoxy-p-benzoquinone in the stored material ([1]; samples kept at 40 or 60° C.) | fungicidal and bacteriostatic effect [2] | cytotoxicity for malignant tumour cells (malignant tumour cells)
COC1=CC(=O)C=CC1=O [2-MBQ, 2-methoxy-p-benzoquinone] | remained unchanged | could not be shown after one week of storage | fungicidal and bacteriostatic effect | –
COC1=CC(=O)C=C(OC)C1=O [2.6-DMBQ, 2.6-dimethoxy-p-benzoquinone] | – | – | fungicidal and bacteriostatic effect | cytotoxic
